In patent US9861590B2, “Self-supporting films for delivery of therapeutic agents” (priority 2010, dated 2018):
Where a name gives a salt, the structure may show the parent alone.

Experiment: Saturation and payload limits for dip coating bupivacaine HCl solution on polyester mesh (FIG. 8)
Assay type: physicochemical
Settings: Parietex monofilament polyester mesh without polymer film
Excerpt: Further, it is believed that spraying films on a medical device (e.g., mesh) compared to other conventional methods, such as dip coating, provides increased loading of the therapeutic agent.
More particularly FIG. 8 illustrates the loading limits for a polyester mesh (Parietex™ monofilament mesh) without a polymer film.

SMILES: CCCCN1CCCCC1C(=O)Nc1c(C)cccc1C (centres unmarked) [bupivacaine HCl, bupivacaine hydrochloride]
- saturation and payload limits for dip coating solution (solution in MeOH): 12 % w/v
- saturation and payload limits for dip coating solution (solution in water): 5 % w/v
